Measured values reported in article PMC10443802, “Targeting a xenobiotic transporter to ameliorate vincristine-induced sensory neuropathy” (JCI Insight, 2023).
“And” between values parts separate entries of the source, which are not always exact repeats. Identical values can stand only once.

Tests used:
hOATP4A1 = hOATP4A1 (Homo sapiens, UniProt Q96BD0); assay: Vincristine uptake screen, HeLa cells overexpressing hOATP4A1; format: in vitro ADME
Protocol: (§1) Relative uptake is expressed as percentage change compared with empty vector controls (n = 4–14 per group). […] Human OATP1B1 and OATP1B3 transporter–overexpressed cells were used as positive controls; empty vector controls were used as the negative control. […] Mechanical allodynia (C), thermal hyperalgesia (D), and sciatic nerve maximal action potential amplitudes (E) are expressed as percentage change relative to baseline values (n = 6–8 per group). Statistical analysis was performed using a 2-way ANOVA with Bonferroni’s post hoc test. **P < 0.01, ***P < 0.001, ****P < 0.0001, compared with baseline values. […] Data are shown as mean ± SEM. […]
(§2) transfected with transporters of interest, including hOAT1, hOAT3, hOAT4, hOATP1A2, hOATP3A1, hOATP4A1, hOATP5A1, hOATP1C1, hOATP1B1, hOATP1B3, hOATP2B1, hOCT1, hOCT2, hOCTN1, hOCTN2, hASBT, hNTCP, hNPT1, hMATE1, hOSTα/β, hPEPT1, hPEPT2, rOatp1a1, rOatp1a4, rOatp1a5, rOatp1b2, rNtcp, rAsbt, rOat1, and rOct1. Cells were transfected with expression plasmid or vector control lacking any insert using Lipofectin reagent (Invitrogen). Sixteen hours thereafter, cells were washed with transport media (OPTIMEM, Invitrogen) and treated with radiolabeled drug. […] The cellular radioactivity was quantified by liquid scintillation counting as described above. […]

mMATE1 = mMATE1 (Mus musculus, UniProt Q8K0H1); assay: Substrate uptake in HEK293 cells overexpressing mMATE1; conditions: HEK293 mouse MATE1
Protocol: on OATP1B1, OATP1B3, or OATP1B2 function was evaluated using EβG (Axxora LLC) as the
transfected with transporters of interest, including hOAT1, hOAT3, hOAT4, hOATP1A2, hOATP3A1, hOATP4A1, hOATP5A1, hOATP1C1, hOATP1B1, hOATP1B3, hOATP2B1, hOCT1, hOCT2, hOCTN1, hOCTN2, hASBT, hNTCP, hNPT1, hMATE1, hOSTα/β, hPEPT1, hPEPT2, rOatp1a1, rOatp1a4, rOatp1a5, rOatp1b2, rNtcp, rAsbt, rOat1, and rOct1. Cells were transfected with expression plasmid or vector control lacking any insert using Lipofectin reagent (Invitrogen). Sixteen hours thereafter, cells were washed with transport media (OPTIMEM, Invitrogen) and treated with radiolabeled drug. At various time intervals, cells were washed three times with ice-cold PBS and then lysed with 1% sodium dodecyl sulfate. The cellular radioactivity was quantified by liquid scintillation counting as described above. Similar analyses were performed in HEK293 cells transfected with hOATP1A2, hOATP1C1, mMATE1, and hMATE1, with cells seeded in poly lysine pre-coated 12-well plates. For hOATP1A2 and hOATP1C1, transient transfections were performed with either an empty vector, OATP1A2, or OATP1C1 using Lipofectamine 2000 according to the manufacturers protocol (Invitrogen).

rOATP1A1 = rOATP1A1 (Rattus norvegicus, UniProt P46720); assay: Vincristine uptake screen, HeLa cells overexpressing rOATP1A1; format: in vitro ADME
Protocol: as §1
as §2, with “(Invitrogen).” for “(Invitrogen). Sixteen hours thereafter, cells were washed with transport media (OPTIMEM, Invitrogen) and treated with radiolabeled drug.”
Samples were analyzed using real-time quantitative PCR and Taqman Probes (Applied Biosystems). The relative gene expression was determined using the ΔΔCt method, and normalized to the mouse or human housekeeping gene, GAPDH. […]

CCRF = assay: Cytotoxicity of vincristine with or without nilotinib, MTT assay, CCRF; format: cell-based, human; conditions: CCRF cells, vincristine alone, individual replicates
LYN kinase = molecular target: T1, LYN kinase (Mus musculus, UniProt P25911); assay: Phosphorylation of LYN kinase in DRG of mice (phospho-LYN/total LYN); format: in vivo
T1 construct: from tissue
Protocol: mg/kg; p.o.) wild-type mice, using specific antibodies for phospho-LYN and total LYN (n = 3 per group).
(C) Mechanical allodynia in wild-type mice and LYN-deficient [LYN(-/-)] mice 24 h after a single dose of
Data presented represent the mean (bars) ± SEM (error
bars), and paw sensitivity is expressed as a percentage over baseline values. Statistical analysis was […]

mOATP1B2 = molecular target: T2, mOATP1B2 (Mus musculus, UniProt Q9JJL3); assay: Inhibition of vincristine uptake in HEK293 cells overexpressing mOATP1B2; format: cell-based; conditions: HEK293 mOATP1B2; inhibitor 15 min pre-treatment
T2 sequence (Q9JJL3 1-689): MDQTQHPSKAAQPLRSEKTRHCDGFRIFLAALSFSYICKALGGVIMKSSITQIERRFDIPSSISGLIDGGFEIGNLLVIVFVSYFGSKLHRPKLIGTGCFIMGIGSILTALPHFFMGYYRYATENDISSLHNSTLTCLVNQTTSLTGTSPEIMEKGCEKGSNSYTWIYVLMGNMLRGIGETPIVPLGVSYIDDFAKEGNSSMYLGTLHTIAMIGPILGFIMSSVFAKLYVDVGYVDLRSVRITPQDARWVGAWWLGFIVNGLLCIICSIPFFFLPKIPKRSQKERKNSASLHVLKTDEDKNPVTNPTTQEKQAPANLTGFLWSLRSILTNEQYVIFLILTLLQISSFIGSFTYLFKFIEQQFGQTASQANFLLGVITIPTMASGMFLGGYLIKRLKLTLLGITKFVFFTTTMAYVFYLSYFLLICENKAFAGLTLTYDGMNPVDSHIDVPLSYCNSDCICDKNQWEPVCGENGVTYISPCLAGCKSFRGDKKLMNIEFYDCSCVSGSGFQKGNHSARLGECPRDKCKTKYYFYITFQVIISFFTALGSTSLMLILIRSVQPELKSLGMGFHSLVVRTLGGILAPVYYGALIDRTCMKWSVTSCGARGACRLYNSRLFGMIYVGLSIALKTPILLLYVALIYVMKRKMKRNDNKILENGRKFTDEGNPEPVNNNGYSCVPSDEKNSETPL

Chain of hOATP4A1 (Q96BD0 whole entry): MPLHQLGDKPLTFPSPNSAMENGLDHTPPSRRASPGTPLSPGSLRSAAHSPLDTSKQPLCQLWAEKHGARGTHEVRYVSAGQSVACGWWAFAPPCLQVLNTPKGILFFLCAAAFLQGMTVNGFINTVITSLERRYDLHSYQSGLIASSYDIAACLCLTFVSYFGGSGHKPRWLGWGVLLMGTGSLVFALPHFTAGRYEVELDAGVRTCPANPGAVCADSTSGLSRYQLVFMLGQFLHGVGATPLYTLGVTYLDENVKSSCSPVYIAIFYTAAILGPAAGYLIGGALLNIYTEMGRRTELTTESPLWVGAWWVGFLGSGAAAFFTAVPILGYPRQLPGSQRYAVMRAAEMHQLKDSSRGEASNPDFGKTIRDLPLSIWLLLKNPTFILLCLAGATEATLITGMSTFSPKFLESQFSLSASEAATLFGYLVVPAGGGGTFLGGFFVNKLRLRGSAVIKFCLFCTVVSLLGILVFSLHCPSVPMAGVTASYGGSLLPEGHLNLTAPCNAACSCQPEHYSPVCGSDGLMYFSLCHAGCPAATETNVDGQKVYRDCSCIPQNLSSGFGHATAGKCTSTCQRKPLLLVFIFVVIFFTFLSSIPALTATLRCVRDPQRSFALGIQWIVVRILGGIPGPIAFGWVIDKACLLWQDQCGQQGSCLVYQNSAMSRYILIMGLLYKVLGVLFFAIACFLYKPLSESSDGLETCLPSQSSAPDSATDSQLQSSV
Chain of rOATP1A1 (P46720 whole entry): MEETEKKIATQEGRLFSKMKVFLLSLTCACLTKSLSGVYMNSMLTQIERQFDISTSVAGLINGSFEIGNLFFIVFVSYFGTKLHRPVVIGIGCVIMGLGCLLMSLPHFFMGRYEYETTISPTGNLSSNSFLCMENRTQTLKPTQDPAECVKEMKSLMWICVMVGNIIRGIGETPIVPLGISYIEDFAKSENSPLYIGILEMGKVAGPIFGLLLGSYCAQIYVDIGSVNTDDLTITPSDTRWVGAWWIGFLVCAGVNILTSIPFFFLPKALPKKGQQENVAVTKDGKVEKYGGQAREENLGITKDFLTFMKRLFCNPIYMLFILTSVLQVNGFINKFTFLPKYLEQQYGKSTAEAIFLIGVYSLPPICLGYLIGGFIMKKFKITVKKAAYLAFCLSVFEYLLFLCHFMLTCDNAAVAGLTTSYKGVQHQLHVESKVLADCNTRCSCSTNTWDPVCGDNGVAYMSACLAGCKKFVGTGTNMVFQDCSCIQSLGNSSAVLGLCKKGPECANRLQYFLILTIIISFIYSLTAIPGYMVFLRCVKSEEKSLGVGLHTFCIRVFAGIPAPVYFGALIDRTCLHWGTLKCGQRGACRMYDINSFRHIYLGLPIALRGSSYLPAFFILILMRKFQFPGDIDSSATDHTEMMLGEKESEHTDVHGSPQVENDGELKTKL
T1 sequence (P25911 whole entry): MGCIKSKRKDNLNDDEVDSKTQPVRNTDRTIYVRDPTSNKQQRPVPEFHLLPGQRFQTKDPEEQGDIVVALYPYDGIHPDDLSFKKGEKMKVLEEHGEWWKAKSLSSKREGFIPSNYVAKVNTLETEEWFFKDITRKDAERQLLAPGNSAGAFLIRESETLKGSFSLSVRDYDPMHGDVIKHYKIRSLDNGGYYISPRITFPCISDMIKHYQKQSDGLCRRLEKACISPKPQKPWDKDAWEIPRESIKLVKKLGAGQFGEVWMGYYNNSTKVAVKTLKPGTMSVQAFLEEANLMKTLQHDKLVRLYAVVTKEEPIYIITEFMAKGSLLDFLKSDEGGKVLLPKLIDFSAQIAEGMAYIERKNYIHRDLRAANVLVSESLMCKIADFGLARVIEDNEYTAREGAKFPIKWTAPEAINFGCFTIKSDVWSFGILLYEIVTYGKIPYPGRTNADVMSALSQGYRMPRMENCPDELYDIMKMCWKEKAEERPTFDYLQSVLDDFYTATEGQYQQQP
Chain of mMATE1 (Q8K0H1 whole entry): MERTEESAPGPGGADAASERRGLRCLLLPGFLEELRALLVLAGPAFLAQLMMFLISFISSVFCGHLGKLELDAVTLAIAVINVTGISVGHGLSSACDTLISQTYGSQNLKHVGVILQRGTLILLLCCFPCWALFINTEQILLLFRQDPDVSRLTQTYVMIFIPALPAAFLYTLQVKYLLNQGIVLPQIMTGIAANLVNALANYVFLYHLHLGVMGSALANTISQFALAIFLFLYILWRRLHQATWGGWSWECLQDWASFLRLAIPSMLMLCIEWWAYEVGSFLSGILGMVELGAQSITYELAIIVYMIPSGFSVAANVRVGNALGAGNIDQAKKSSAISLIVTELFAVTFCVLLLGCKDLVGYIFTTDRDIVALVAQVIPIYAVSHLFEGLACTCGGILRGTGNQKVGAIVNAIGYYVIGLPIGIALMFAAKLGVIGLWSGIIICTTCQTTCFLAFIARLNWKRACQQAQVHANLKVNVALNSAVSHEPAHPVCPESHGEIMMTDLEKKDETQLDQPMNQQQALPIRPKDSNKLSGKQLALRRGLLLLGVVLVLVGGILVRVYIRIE

Row | SMILES | Vincristine uptake (% of vector control) (hOATP4A1) | Contribution of transporter to cellular uptake of vincristine (mMATE1) | Vincristine uptake (% of vector control) (rOATP1A1) | IC50 (CCRF) | DRG Phosho-LYN/Total LYN (% of Untreated) (LYN kinase; DRG of mice) | Phosphorylated-LYN in DRG neurons (LYN kinase; nilotinib 100 mg/kg p.o., wild-type mice) | Vincristine uptake (% of vehicle) (mOATP1B2)
1 | CC[C@]1(O)C[C@H]2CN(CCc3c([nH]c4ccccc34)[C@@](C(=O)OC)(c3cc4c(cc3OC)N(C=O)[C@H]3[C@@](O)(C(=O)OC)[C@H](OC(C)=O)[C@]5(CC)C=CCN6CC[C@]43[C@@H]65)C2)C1 [Vincristine, vincristine] | 134.00 % of vector control and 105.00 % of vector control and 130.00 % of vector control and 116.00 % of vector control and 108.00 % of vector control and 117.00 % of vector control and 144.00 % of vector control and 140.00 % of vector control | do not appreciably contribute to the cellular uptake of vincristine | 102.00 % of vector control and 84.00 % of vector control and 73.00 % of vector control and 95.00 % of vector control and 74.00 % of vector control and 58.00 % of vector control and 71.00 % of vector control and 62.00 % of vector control | 4.56 nM and 4.49 nM and 1.65 nM and 7.48 nM and 6.4 nM and 5.53 nM and 3.87 nM and 3.24 nM and 7.33 nM |  |  | 
2 | Cc1cn(-c2cc(NC(=O)c3ccc(C)c(Nc4nccc(-c5cccnc5)n4)c3)cc(C(F)(F)F)c2)cn1 [Nilotinib, nilotinib] |  |  |  |  | 47.9691 % of Untreated and 52.4315 % of Untreated and 37.2669 % of Untreated | significant inhibition of phosphorylated-LYN in DRG neurons | 73.0702 % of vehicle and 58.7366 % of vehicle and 55.2034 % of vehicle and 63.6149 % of vehicle and 58.7604 % of vehicle and 51.7599 % of vehicle
